Experimental data as given in ChEMBL document CHEMBL1154171 (J Med Chem, 2009).
One block for each molecule: values may come before it. Active and inactive are the calls of the source. The calls are words filed in the database; no cut-off is given here.

Legend:
[1] = tested on: Mus musculus; experiment: Toxicity in BALB/c mouse xenografted with mouse Sal cells assessed as change in body weight at 25 mg/kg, po BID administered 8 hrs apart measured within 5 days relative to control; format: organism-based; set-up: dose 25 mg/kg, route oral; conditions: in vivo
[2] = Antitumor activity against mouse Sal cells xenografted in po dosed BALB/c mouse assessed as minimum effective dose required for complete tumor growth inhibition administered BID 8 hrs apart measured within 5 days; format: functional; conditions: read-out: MED
[3] = cells; conditions: Mus musculus, Sal
[4] = target: Insulin-like growth factor 1 receptor (Homo sapiens, UniProt P08069); experiment: Inhibition of IGF1R after 60 mins by fluorescence electrophoresis
[5] = target: Cyclin-dependent kinase 2/cyclin E (Homo sapiens, UniProt P24941); experiment: Inhibition of CDK2/Cyclin E after 60 mins by fluorescence electrophoresis; format: protein-complex assay
[6] = Antitumor activity against mouse Sal cells xenografted in BALB/c mouse assessed as tumor growth inhibition at 6 to 25 mg/kg, po BID administered 8 hrs apart measured within 5 days; format: functional; conditions: dose mg/kg 6-25
[7] = In vivo antitumor activity against human Rh41 cells assessed as tumor growth inhibition at 12.5 mg/kg BID for 14 consecutive days measured on day 60 post tumor implantation; format: functional; conditions: Rh41, 1440 h, read-out: TGI
[8] = Antitumor activity against mouse Sal cells xenografted in BALB/c mouse assessed as tumor growth inhibition at 6.25 mg/kg, po BID for 4 days measured 2 hrs after final dose on day 5; format: functional; conditions: read-out: TGI
[9] = Total clearance in iv dosed dog; format: ADME, organism-based, Canis lupus familiaris; conditions: in vivo
[10] = Plasma protein binding in mouse; format: ADME, cell-free; conditions: read-out: PPB (converted)
[11] = target: Macrophage-stimulating protein receptor (Homo sapiens) (UniProt Q04912); experiment: Inhibition of Ron
[12] = target: High affinity nerve growth factor receptor (Homo sapiens) (UniProt P04629); experiment: Inhibition of TrkA
[13] = target: RAC-alpha serine/threonine-protein kinase (Mus musculus, UniProt P31750); experiment: Inhibition of Akt phosphorylation in mouse Sal cells by Western blotting; format: cell-based
[14] = Permeability by PAMPA; format: ADME; conditions: read-out: permeability
[15] = Total clearance in iv dosed rat; format: ADME, organism-based; conditions: in vivo
[16] = Permeability across human Caco-2 cells; format: ADME, cell-based; conditions: read-out: permeability
[17] = Antitumor activity against mouse Sal cells xenografted in BALB/c mouse assessed as tumor growth inhibition at 3.125 mg/kg, po BID for 4 days measured 2 hrs after final dose on day 5; format: functional; conditions: read-out: TGI
[18] = target: Aurora kinase B (Homo sapiens) (UniProt Q96GD4); experiment: Inhibition of Aurora B
[19] = Bioavailability in iv dosed rat; format: ADME, organism-based; conditions: in vivo
[20] = target: Cytochrome P450 2D6 (Homo sapiens, UniProt P10635); experiment: Inhibition of CYP2D6; format: ADME
[21] = Total clearance in iv dosed monkey; format: ADME, organism-based, Macaca mulatta; conditions: rhesus monkey, in vivo
[22] = Bioavailability in iv dosed monkey; format: ADME, organism-based, Macaca mulatta; conditions: rhesus monkey, in vivo
[23] = target: Insulin receptor (Mus musculus) (UniProt P15208); experiment: Inhibition of insulin receptor phosphorylation in mouse Sal cells at 0.003 to 1 uM by Western blotting; format: cell-based
[24] = Bioavailability in iv dosed mouse; format: ADME, organism-based; conditions: in vivo
[25] = target: BDNF/NT-3 growth factors receptor (Homo sapiens) (UniProt Q16620); experiment: Inhibition of TrkB
[26] = tested on: Mus musculus; experiment: Toxicity in BALB/c mouse xenografted with mouse Sal cells assessed as body weight loss at 25 mg/kg, po BID administered 8 hrs apart for 4 consecutive days measured within 5 days; format: organism-based; set-up: dose 25 mg/kg, route oral; conditions: in vivo
[27] = tested on: Mus musculus; experiment: Inhibition of IGF1R phosphorylation in po dosed BALB/c mouse xenografted with mouse Sal cells at 3.125 to 12.5 mg/kg, po BID for 4 days measured 2 hrs after final dose on day 5 by Western blot analysis; format: functional, organism-based
[28] = Bioavailability in iv dosed dog; format: ADME, organism-based, Canis lupus familiaris; conditions: in vivo
[29] = Antitumor activity against mouse Sal cells xenografted in BALB/c mouse assessed as tumor growth inhibition at 12.5 mg/kg, po BID for 4 days measured 2 hrs after final dose on day 5; format: functional; conditions: read-out: TGI
[30] = target: Cytochrome P450 1A2 (Homo sapiens, UniProt P05177); experiment: Inhibition of CYP1A2; format: ADME
[31] = tested on: Mus musculus; experiment: Inhibition of Akt phosphorylation in po dosed BALB/c mouse xenografted with mouse Sal cells at 3.125 to 12.5 mg/kg, po BID for 4 days measured 2 hrs after final dose on day 5 by Western blot analysis; format: functional, organism-based
[32] = Total clearance in iv dosed mouse; format: ADME, organism-based; conditions: in vivo
[33] = target: Cytochrome P450 2C9 (Homo sapiens, UniProt P11712); experiment: Inhibition of CYP2C9; format: ADME
[34] = target: Cytochrome P450 2C19 (Homo sapiens, UniProt P33261); experiment: Inhibition of CYP2C19; format: ADME

Chain of Cytochrome P450 1A2 (P05177 whole entry): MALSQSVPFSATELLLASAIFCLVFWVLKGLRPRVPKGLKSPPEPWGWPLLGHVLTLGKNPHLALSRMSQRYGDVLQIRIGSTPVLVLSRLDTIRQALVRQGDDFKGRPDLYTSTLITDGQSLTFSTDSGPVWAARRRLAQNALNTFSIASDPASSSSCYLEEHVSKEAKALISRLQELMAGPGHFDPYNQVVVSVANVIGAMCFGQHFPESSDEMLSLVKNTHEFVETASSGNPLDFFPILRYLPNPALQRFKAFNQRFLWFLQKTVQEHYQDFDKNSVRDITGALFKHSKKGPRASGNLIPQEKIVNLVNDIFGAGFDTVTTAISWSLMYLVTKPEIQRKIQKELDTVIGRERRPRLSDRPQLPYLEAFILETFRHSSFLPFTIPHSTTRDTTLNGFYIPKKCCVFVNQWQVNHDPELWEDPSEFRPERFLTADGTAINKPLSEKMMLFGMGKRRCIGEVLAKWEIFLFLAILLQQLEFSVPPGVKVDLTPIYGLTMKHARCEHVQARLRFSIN
Chain of High affinity nerve growth factor receptor (Homo sapiens) (P04629 33-796 limits assumed): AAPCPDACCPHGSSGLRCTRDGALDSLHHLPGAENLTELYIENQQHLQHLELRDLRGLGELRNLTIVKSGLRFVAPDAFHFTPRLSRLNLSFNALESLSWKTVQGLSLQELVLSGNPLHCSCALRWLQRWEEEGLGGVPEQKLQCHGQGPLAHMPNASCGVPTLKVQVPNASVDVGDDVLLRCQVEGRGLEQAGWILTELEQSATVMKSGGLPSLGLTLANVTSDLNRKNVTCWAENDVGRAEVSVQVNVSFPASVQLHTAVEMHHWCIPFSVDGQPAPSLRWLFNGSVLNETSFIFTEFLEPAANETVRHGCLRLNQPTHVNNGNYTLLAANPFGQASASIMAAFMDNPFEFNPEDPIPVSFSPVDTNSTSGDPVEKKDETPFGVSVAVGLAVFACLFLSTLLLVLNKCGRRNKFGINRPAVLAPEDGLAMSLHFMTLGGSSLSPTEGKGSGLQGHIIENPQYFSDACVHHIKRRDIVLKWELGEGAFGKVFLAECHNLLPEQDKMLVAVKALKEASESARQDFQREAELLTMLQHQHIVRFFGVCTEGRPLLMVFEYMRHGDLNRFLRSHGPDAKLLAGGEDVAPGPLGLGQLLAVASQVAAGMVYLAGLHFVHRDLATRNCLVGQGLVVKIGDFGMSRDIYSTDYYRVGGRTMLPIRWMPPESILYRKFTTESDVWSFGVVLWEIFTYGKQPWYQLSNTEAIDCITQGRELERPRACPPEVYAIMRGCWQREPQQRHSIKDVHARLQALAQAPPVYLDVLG
Chain of Insulin-like growth factor 1 receptor (P08069 31-736 limits assumed): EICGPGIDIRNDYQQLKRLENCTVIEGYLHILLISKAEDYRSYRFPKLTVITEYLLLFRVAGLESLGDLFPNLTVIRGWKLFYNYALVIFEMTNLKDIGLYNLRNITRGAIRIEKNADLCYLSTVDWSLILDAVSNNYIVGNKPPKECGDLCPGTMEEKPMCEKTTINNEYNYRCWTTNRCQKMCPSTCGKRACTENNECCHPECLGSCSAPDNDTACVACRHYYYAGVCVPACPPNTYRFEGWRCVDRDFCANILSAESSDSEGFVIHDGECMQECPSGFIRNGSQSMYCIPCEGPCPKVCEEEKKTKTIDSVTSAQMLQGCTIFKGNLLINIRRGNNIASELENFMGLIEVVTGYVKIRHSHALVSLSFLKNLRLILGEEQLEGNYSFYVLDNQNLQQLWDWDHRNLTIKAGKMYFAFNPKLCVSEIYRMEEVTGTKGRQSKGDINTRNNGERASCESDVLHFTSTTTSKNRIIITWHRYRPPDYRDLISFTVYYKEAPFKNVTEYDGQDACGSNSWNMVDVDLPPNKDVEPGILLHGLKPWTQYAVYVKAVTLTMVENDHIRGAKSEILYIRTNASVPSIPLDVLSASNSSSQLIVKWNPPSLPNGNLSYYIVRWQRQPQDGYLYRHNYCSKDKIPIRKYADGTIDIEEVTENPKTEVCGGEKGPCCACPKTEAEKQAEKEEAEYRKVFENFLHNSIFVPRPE
Chain of Insulin-like growth factor 1 receptor (P08069 741-1367 limits assumed): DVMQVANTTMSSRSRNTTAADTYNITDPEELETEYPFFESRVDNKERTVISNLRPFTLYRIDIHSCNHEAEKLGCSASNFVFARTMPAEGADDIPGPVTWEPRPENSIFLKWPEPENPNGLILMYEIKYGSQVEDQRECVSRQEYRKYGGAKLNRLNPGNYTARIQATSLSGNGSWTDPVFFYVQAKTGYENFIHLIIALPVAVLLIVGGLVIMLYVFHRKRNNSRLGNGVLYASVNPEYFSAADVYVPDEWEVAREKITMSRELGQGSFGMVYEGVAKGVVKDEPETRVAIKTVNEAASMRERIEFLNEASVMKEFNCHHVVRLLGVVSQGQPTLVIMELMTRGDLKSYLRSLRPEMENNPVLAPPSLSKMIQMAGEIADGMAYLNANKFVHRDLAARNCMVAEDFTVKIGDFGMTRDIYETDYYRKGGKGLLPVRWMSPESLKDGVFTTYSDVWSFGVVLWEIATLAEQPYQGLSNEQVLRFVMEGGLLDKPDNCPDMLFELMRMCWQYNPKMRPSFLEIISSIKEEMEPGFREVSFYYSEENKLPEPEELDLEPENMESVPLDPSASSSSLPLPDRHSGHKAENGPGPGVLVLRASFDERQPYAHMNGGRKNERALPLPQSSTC
Chain of Macrophage-stimulating protein receptor (Homo sapiens) (Q04912 25-304 limits assumed): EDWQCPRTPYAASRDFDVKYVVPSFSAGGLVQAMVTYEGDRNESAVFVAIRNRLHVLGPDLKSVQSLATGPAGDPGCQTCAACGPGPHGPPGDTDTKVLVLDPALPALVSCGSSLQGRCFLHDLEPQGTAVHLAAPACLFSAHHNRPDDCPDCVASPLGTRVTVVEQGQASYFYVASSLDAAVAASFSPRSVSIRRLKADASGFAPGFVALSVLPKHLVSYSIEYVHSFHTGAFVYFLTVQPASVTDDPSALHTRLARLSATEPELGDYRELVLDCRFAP
Chain of Macrophage-stimulating protein receptor (Homo sapiens) (Q04912 310-1400 limits assumed): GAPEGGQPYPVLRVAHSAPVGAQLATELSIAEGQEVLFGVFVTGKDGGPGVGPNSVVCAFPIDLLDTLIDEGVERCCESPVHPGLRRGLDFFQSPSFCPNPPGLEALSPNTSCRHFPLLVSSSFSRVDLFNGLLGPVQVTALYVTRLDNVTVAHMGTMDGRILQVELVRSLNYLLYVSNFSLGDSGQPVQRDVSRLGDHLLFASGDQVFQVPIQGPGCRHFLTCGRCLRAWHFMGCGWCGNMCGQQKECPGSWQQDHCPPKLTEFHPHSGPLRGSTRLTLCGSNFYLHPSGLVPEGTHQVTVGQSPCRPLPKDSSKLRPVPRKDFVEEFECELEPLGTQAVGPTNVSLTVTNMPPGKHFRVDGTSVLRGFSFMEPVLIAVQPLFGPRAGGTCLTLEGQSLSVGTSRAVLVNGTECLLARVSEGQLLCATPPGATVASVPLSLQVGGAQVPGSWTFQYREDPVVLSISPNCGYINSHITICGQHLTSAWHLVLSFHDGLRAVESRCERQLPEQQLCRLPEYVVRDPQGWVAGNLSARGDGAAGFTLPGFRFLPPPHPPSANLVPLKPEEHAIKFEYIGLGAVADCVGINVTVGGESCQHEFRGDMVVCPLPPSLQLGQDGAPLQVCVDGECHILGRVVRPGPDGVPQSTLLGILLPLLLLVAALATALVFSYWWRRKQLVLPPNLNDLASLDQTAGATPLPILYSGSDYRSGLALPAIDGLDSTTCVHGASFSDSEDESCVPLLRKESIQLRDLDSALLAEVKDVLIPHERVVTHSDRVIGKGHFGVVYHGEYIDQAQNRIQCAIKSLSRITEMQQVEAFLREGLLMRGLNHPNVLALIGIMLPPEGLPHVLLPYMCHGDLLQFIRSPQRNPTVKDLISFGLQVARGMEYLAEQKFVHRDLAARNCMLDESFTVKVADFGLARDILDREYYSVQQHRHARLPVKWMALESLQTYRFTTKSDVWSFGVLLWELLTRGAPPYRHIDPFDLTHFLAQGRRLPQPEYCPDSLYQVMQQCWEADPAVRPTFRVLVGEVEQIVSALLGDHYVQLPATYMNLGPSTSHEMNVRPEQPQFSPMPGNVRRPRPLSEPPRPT
Chain of RAC-alpha serine/threonine-protein kinase (P31750 whole entry): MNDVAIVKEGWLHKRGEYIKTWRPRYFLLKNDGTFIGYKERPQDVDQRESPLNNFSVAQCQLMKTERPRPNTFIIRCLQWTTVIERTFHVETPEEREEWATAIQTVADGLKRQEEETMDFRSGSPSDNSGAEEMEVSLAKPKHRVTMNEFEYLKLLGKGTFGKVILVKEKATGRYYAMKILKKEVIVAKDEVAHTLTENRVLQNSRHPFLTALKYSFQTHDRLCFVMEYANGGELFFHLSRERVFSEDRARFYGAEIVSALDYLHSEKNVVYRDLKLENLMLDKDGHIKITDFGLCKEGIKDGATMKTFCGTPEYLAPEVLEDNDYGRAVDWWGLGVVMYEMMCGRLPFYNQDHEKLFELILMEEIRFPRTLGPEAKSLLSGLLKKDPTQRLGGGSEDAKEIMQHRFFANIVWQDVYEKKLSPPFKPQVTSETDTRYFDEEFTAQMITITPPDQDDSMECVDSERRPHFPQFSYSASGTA
Chain of Aurora kinase B (Homo sapiens) (Q96GD4 whole entry): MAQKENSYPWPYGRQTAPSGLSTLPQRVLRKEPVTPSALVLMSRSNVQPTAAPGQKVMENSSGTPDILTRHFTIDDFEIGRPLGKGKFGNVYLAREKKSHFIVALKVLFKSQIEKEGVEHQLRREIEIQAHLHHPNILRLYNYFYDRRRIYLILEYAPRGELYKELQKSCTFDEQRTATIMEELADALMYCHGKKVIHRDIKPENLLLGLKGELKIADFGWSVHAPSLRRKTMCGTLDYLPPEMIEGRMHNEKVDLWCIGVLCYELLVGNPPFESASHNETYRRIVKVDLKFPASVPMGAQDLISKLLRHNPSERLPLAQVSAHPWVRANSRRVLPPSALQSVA

Structure (SMILES): C[C@@]1(C(=O)Nc2cccnc2)CCCN1c1nc(Nc2cc(C3CC3)[nH]n2)c2cccn2n1
Activity [1]: 1.9 g | minimal effective dose [2]: 25 mg/kg | IC50 [3]: 24 nM | IC50 [4]: 6 nM | IC50 [5]: 1430 nM | TGI [6]: 76%

Structure (SMILES): CN(C(=O)[C@@H]1CCCN1c1nc(Nc2cc(C3CC3)[nH]n2)c2cccn2n1)c1ccccc1
IC50 [5]: 200 nM

Structure (SMILES): C[C@@]1(C(=O)Nc2cnccn2)CCCN1c1nc(Nc2cc(C3CC3)[nH]n2)c2cccn2n1
Activity [1]: -3.6 g | minimal effective dose [2]: 6.25 mg/kg | TGI [6]: 113%

Structure (SMILES): NC(=O)[C@@H]1CCCN1c1nc(Nc2cc(C3CC3)[nH]n2)c2cccn2n1
IC50 [3]: 47 nM | IC50 [5]: 2 nM

Structure (SMILES): C[C@@]1(C(=O)Nc2nccs2)CCCN1c1nc(Nc2cc(C3CC3)n[nH]2)c2cccn2n1
Activity [1]: 0.3 g | minimal effective dose [2]: 12.5 mg/kg | TGI [6]: 74%

Structure (SMILES): C[C@@]1(C(=O)Nc2ccc(F)nc2)CCCN1c1nc(Nc2cc(C3CC3)n[nH]2)c2cccn2n1 [BMS-754807]
inhibition in vivo at 12.5 mg/kg [7]: 115% | Activity [1]: 0.2 g | inhibition in vivo at 6.25 mg/kg [8]: 107% | clearance [9]: 3.5 mL/min/kg | fraction unbound [10]: 0.015 | inhibition [11]: Active | inhibition [12]: Active | IC50 [13]: 22 nM | Papp [14]: 38.7 ×10⁻⁶ cm/s | clearance [15]: 20 mL/min/kg | Papp [16]: 14.1 ×10⁻⁶ cm/s | inhibition in vivo at 3.125 mg/kg [17]: 80% | minimal effective dose [2]: 6.25 mg/kg | inhibition [18]: Active | bioavailability [19]: 30% | IC50 [20]: > 40000 nM | clearance [21]: 41 mL/min/kg | bioavailability [22]: 8% | Activity [23]: Active | bioavailability [24]: 6% | inhibition [25]: Active | Activity [26]: > 10% | inhibition [27]: Active | bioavailability [28]: 59% | inhibition in vivo at 12.5 mg/kg [29]: 110% | TGI [6]: 102% | IC50 [30]: > 40000 nM | inhibition [31]: Active | clearance [32]: 113 mL/min/kg | IC50 [33]: 23000 nM | IC50 [34]: 11000 nM

The next lines start with the values.

IC50 [3]: 39 nM | IC50 [5]: 577 nM
Structure (SMILES): O=C(Nc1cccnc1)[C@@H]1CCCN1c1nc(Nc2cc(C3CC3)[nH]n2)c2cccn2n1

IC50 [3]: 426 nM | IC50 [5]: 1420 nM
Structure (SMILES): Cc1ccc(NC(=O)[C@@H]2CCCN2c2nc(Nc3cc(C4CC4)[nH]n3)c3cccn3n2)cc1

IC50 [3]: 133 nM | IC50 [5]: 322 nM
Structure (SMILES): O=C(Nc1ccccc1)[C@@H]1CCCN1c1nc(Nc2cc(C3CC3)[nH]n2)c2cccn2n1

IC50 [3]: 310 nM | IC50 [5]: 24 nM
Structure (SMILES): NC(=O)[C@H]1CCCN1c1nc(Nc2cc(C3CC3)[nH]n2)c2cccn2n1

IC50 [3]: 69 nM | IC50 [5]: 40 nM
Structure (SMILES): O=C(Nc1nccs1)[C@@H]1CCCN1c1nc(Nc2cc(C3CC3)[nH]n2)c2cccn2n1
